Data reported in patent US8017585B2, “CXCR4 antagonist and use thereof” (priority 2002, dated 2011).
Bridge positions count the residues as written; N and C are the ends. Square brackets hold non-standard residues; d marks the D form. Peptide text beside a SMILES is read from it. * marks the point of attachment. 2Nal = N[C@@H](Cc1ccc2ccccc2c1)C(=O)O; Benzoyl(4-F) = O=C(c1ccc(F)cc1)*; Cit = NC(=O)NCCC[C@H](N)C(=O)O

What was measured:
[1] = target: T1, CXCR4 receptor (Homo sapiens, UniProt P61073); experiment: Inhibition of 125I-CXCL12 binding to CXCR4 receptor on Jurkat cells; conditions: Table 1, 125I-CXCL12, 1 hour at room temperature, compounds as acetate salt, read-out: IC50 (nM), inhibitory activity against CXCL12 binding to CXCR4 receptor
T1 construct: 50 μL of Jurkat human T-cell leukemia cells (6×10^6 cells/mL) suspended in buffer; endogenous in cells; host or cells: Jurkat human T-cell leukemia cells
T1 sequence (P61073 whole entry): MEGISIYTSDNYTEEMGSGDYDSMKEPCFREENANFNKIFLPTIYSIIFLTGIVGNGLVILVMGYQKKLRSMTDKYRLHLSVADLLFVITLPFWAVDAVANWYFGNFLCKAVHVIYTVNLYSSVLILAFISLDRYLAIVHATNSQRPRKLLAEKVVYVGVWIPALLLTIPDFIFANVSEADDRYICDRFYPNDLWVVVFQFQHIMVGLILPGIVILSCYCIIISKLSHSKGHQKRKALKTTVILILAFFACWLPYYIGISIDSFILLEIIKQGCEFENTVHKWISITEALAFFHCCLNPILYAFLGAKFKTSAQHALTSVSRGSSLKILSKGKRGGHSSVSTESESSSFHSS
Experimental: After reaction, suction was made toward the reaction solution by 96 well GF/C filter plate, and each well's radioactivity was measured by top count. As the radioactivity index of 100% when the test compound was not added, and 0% when 100 nM of non-radioisotope-labeled CXCL12 was added, the inhibitory activity of each test compound was measured.

[2] = tested on: MDA-MB-231 human breast cancer cells; experiment: Anti-metastatic activity, MDA-MB-231 cells implanted i.v. in SCID mice, lung metastasis; type: in vivo, CB-17 SCID mice; conditions: 18.2 mg/kg/day by Alzet osmotic pump, 28 days after implantation
Experimental: MDA-MB-231 human breast cancer cells (10^6 cells) were implanted intravenously into the tails of five week-old female CB-17 SCID mice (Crea Japan, Inc.). 4Fbenzoyl-TN-14003 was prepared at 80 mg/mL in physiologic saline solution, was included into sustained-releasing osmotic pumps (Alzet pump, Alza Corporation, usable for 2 week sustained-release; the dose was equivalent to 18.2 mg/kg/day), and was intradermally loaded to the backs of the mice on the date immediately preceding the implantation. Further, 14 days after the implantation, Alzet pumps containing an equal dose of the drug were additionally loaded. To the control group, Alzet pumps injected with physiological saline solution were additionally loaded. 28 days after the implantation, the mice were dissected, about 2 mL of 0.2% Evans' Blue solution was injected through windpipes, and lungs were stained. The lungs were taken out, soaked in Bouin's liquid, stained and fixed. […] In the lungs of the control group, the yellow stained portions were evenly seen, and lung metastasis was observed. On the other hand, in the 4Fbenzoyl-TN-14003 administration group, yellow stained specimens were less.

[3] = tested on: mouse DTH reaction induced by SRBC; experiment: Mouse delayed-type hypersensitivity reaction (DTH) induced by SRBC; type: in vivo, BALB/c mice; conditions: Alzet osmotic pump
Experimental: Preserved blood of sheep was purchased from Nippon Bio-Supp. Center. The preserved sheep blood was cleansed twice in physiological saline solution, suspended in physiological saline solution, and used as sheep red blood cells (SRBC). As OD541 nm value of oxyhemoglobin at the time of hemolyzation of 1.0×10^9 cells/mL of the SRBC suspension by 14 parts distilled water is considered to be nearly 0.700, SRBC density was accordingly fixed.
2×10^7 cells/50 μl of SRBC were administered subcutaneously to the ankles of the left hindlimbs of BALB/c mice (male, 6 week-old, Charles River Japan, Inc.) and sensitized. After 5 days, 10^8 cells/50 μl of SRBC were administered subcutaneously to the ankles of the right hindlimbs and DTH reaction was induced. Immediately prior to and 24 hours after the induction of antigens, the thickness of the ankles of the right hindlimbs was measured by a digital micrometer (Mitutoyo Corporation CD-15B), and the increase (mm) in the thickness of ankles was adopted as the indicator of DTH reaction.
4Fbenzoyl-TN14003 was dissolved to PBS, and continuously administered using Alzet osmotic pumps (Alza, 0.5 μL/hr, 7 days persistent type). The osmotic pumps were implanted intradermally to the backs under ether anesthesia on the day before the sensitization. As the control, pumps injected with PBS were similarly implanted. 4F-benzoyl-TN14003 was administered at the doses of 4.8, 24 and 120 μg/day.
Data were expressed as mean value±standard margin of error (n=7). By Williams test, p≦0.025 was valued as significant.

[4] = tested on: mouse collagen-induced arthritis; experiment: Mouse collagen-induced arthritis; type: in vivo, DBA/1JN mouse; conditions: 120 μg/day, Alzet osmotic pump, 2 weeks
Experimental: FK-506 was purified by a known method (Kino T. et al., J. Antibiot., 1987 40(9): 1249-55). […] For 2 weeks after the additional immunization, body weights and hindlimb thickness were measured and arthritis scoring was made. Arthritis scores were scored at 0-3 points of each limb, and evaluated by the total of the same (12 points being the full points; 0, normal; 1, mild swelling or swelling of a single digit; 2, moderate swelling or swelling of plural digits; 3, severe swelling). Two weeks after the immunization, four limbs and sera were picked. After coat blocking bovine type II collagen (10 μg/mL PBS solution) on the immunoplate, 100 μL of 1000 times diluted mouse serum was added, and kept at room temperature for 2 hours. After cleansing, anti-mouse IgG2a antibody (1000 times dilution) was added. After cleansing, TMB was added, kept at room temperature for 30 minutes, H2SO4 of equal amount was added, and A450 nm was measured. Indomethacin (1 mg/kg), methotrexate (3 mg/kg) and FK-506 (10 mg/kg) were suspended to 0.5% methyl cellulose, and orally administered every day for 2 weeks from the day of the additional immunization at the dose of 0.1 mL/10 g body weight. 0.5% methyl cellulose solution of the equal dose was orally administered to the control group. 4Fbenzoyl-TN14003 was dissolved to PBS, and continuously administered using Alzet osmotic pumps (Alza, 0.5 μL/hr 2 weeks). The osmotic pumps were implanted intradermally to the backs of the mice under ether anesthesia on the day before the additional immunization. As the control, pumps injected with PBS were similarly implanted. Evaluation of each drug was made for the value obtained 2 weeks after the additional immunization. Data were expressed as mean value±standard margin of error (n=8-12). Comparison between 2 groups was made by Student's t-test, p≦0.05 was valued as significant. Multiple comparison was made by Dunnett test, p≦0.05 was valued as significant.

[5] = tested on: Jurkat human T lymphocyte cell lines; conditions: read-out: IC50 value, inhibition of SDF-1α-induced Jurkat cell migration; SDF-1α 1 ng/mL; 4 hours
Experimental: RPMI-1640 and fetal calf serum (FCS) was purchased from BioWhittaker, penicillin-streptomycin solution, RPMI-1640 (without phenol red) and HEPES from Invitrogen, BSA from Sigma, and, human SDF-1α (CXCL12) from Genzyme. Jurkat human T lymphocyte cell lines were purchased from ATCC and incubated in RPMI-1640 10% FCS.
Using 24-wells Transwell (Costar, polycarbonate membrane, pore size 5 μm), migrating reaction was performed. 600 μL of SDF-1α (final concentration 1 ng/mL) was added to the lower layer of Transwell, 5×10^5 cells (200 μL) was added to the insert, and was reacted at 37° C. for 4 hours. The cells were pre-incubated with drugs at 37° C. for 30 minutes. The migrating reaction was made in RPMI-1640 culture media containing 20 mmol/L HEPES, 0.5% BSA. The cells migrated to the lower layer were recovered, and the number of the cells was counted by Coulter Counter. The inhibitory rate (%) against the migration by the drug of each concentration was calculated by the following formula, and IC50 value was calculated from such inhibitory rate.

N=C(N)NCCC[C@H](NC(=O)[C@@H]1CSSC[C@H](NC(=O)[C@H](Cc2ccc3ccccc3c2)NC(=O)[C@H](CCCNC(=N)N)NC(=O)[C@H](CCCNC(=N)N)NC(=O)c2ccc(F)cc2)C(=O)N[C@@H](Cc2ccc(O)cc2)C(=O)N[C@@H](CCCNC(N)=O)C(=O)N[C@@H](CCCCN)C(=O)N[C@H](CCCCN)C(=O)N2CCC[C@H]2C(=O)N[C@@H](Cc2ccc(O)cc2)C(=O)N[C@@H](CCCNC(=N)N)C(=O)N[C@@H](CCCNC(N)=O)C(=O)N1)C(N)=O [4F-benzoyl-TN14003, 4F-benzoyl-Arg-Arg-Nal-Cys-Tyr-Cit-Lys-DLys-Pro-Tyr-Arg-Cit-Cys-Arg-NH2] ({Benzoyl(4-F)}-RR[2Nal]CY[Cit]K[dK]PYR[Cit]CR-NH2; disulfide 4-13)
IC50 [1]: 0.99 nM | lung metastasis (eye observation of metastatic focus) [2]: the metastasis was inhibited | inhibitory rate of footpad edema (DTH) ([3]; 4.8 μg/day): 9% | inhibitory rate of footpad edema (DTH) ([3]; 24 μg/day): 31% | inhibitory rate of footpad edema (DTH) ([3]; 120 μg/day): 51% | arthritis score [4]: significant inhibitory activity | body weight loss [4]: significant inhibitory activity | hindlimb swelling [4]: significant inhibitory activity | increase of anti-type II collagen specific IgG2a antibody value [4]: inhibitory tendency | IC50 [5]: 650 pM
